Results: ChEMBL document CHEMBL4184139, “Adamantyl- and other polycyclic cage-based conjugates of desferrioxamine B (DFOB) for treating iron-mediated toxicity in cell models of Parkinson's disease” (Bioorg Med Chem Lett, 2017)
The source made the active and inactive calls. The calls are words filed in the database; no cut-off is given here.

What was measured:
[1] = test system: SK-N-BE(2)-M17; experiment: Cytoprotection against H2O2-induced cell death in human SK-N-BE(2)-M17 cells assessed as increase in cell viability at 100 uM pretreated for 2 hrs followed by 1 mM H2O2 addition measured after 24 hrs by MTT assay; assay type: functional, cell-based
[2] = test system: SK-N-BE(2)-M17; experiment: Cytotoxicity against human SK-N-BE(2)-M17 cells at 100 uM 24 hrs by MTT assay; assay type: cell-based; conditions: sk-n-be(2)-m17, 24 h
[3] = test system: SK-N-BE(2)-M17; experiment: Cytoprotection against H2O2-induced cell death in human SK-N-BE(2)-M17 cells assessed as increase in cell viability at 100 uM pretreated for 2 hrs followed by 1 mM H2O2 addition measured after 24 hrs by LDH assay; assay type: functional, cell-based
[4] = test system: SK-N-BE(2)-M17; experiment: Cytoprotection against H2O2-induced cell death in human SK-N-BE(2)-M17 cells assessed as increase in cell viability at 100 uM treated 2 hrs post 0.8 mM H2O2 treatment measured after 24 hrs by MTT assay; assay type: functional, cell-based
[5] = test system: SK-N-BE(2)-M17; experiment: Cytoprotection against PQ-induced cell death in human SK-N-BE(2)-M17 cells assessed as increase in cell viability at 100 uM pretreated for 2 hrs followed by 1 mM PQ addition measured after 24 hrs by MTT assay; assay type: functional, cell-based
[6] = test system: SK-N-BE(2)-M17; experiment: Cytoprotection against PQ-induced cell death in human SK-N-BE(2)-M17 cells assessed as increase in cell viability at 100 uM treated 2 hrs post 2 mM PQ treatment measured after 24 hrs by MTT assay; assay type: functional, cell-based
[7] = Octanol-water partition coefficient, log P of the compound at 1 mg by RP-HPLC analysis; assay type: physicochemical
[8] = test system: Astrocyte; experiment: Cytoprotection against H2O2-induced cell death in BSO pretreated C57BL6/J mouse brain primary astrocytes assessed as increase in cell viability at 10 uM pretreated for 2 hrs followed by H2O2 addition measured after 24 hrs by MTT assay; assay type: functional, cell-based
[9] = test system: SK-N-BE(2)-M17; experiment: Cytoprotection against PQ-induced cell death in human SK-N-BE(2)-M17 cells assessed as increase in cell viability at 100 uM pretreated for 2 hrs followed by 1 mM PQ addition measured after 24 hrs by LDH assay; assay type: functional, cell-based
[10] = test system: SK-N-BE(2)-M17; experiment: Cytoprotection against PQ-induced cell death in human SK-N-BE(2)-M17 cells assessed as increase in cell viability at 100 uM treated post 200 uM Fecl3 and 1 mM PQ treatment measured after 24 hrs by LDH assay; assay type: functional, cell-based
[11] = Binding affinity to Fe3+ assessed as [M+2H]+ adduct formation by LC-MS/MS analysis
[12] = Binding affinity to Fe3+ assessed as change in retention time for compound-Fe3+ complex by RP-HPLC analysis relative to free ligand
[13] = test system: SK-N-BE(2)-M17; experiment: Cytoprotection against PQ-induced cell death in human SK-N-BE(2)-M17 cells assessed as increase in cell viability at 100 uM treated 2 hrs post 2 mM PQ treatment measured after 24 hrs by LDH assay; assay type: functional, cell-based
[14] = test system: Astrocyte; experiment: Cytoprotection against H2O2-induced cell death in BSO pretreated C57BL6/J mouse brain primary astrocytes assessed as increase in cell viability at 10 uM pretreated for 2 hrs followed by H2O2 addition measured after 24 hrs by LDH release assay; assay type: functional, cell-based
[15] = test system: SK-N-BE(2)-M17; experiment: Cytotoxicity against human SK-N-BE(2)-M17 cells at 100 uM 24 hrs by LDH release assay; assay type: cell-based; conditions: sk-n-be(2)-m17, 24 h
[16] = test system: SK-N-BE(2)-M17; experiment: Cytoprotection against H2O2-induced cell death in human SK-N-BE(2)-M17 cells assessed as increase in cell viability at 100 uM treated 2 hrs post 0.8 mM H2O2 treatment measured after 24 hrs by LDH assay; assay type: functional, cell-based
[17] = Binding affinity to Fe3+ assessed as [M+H]+ adduct formation by LC-MS/MS analysis
[18] = test system: SK-N-BE(2)-M17; experiment: Cytoprotection against PQ-induced cell death in human SK-N-BE(2)-M17 cells assessed as increase in cell viability at 100 uM treated post 200 uM Fecl3 and 1 mM PQ treatment measured after 24 hrs by MTT assay; assay type: functional, cell-based
[19] = test system: SK-N-BE(2)-M17; experiment: Cytoprotection against PQ-induced cell death in human SK-N-BE(2)-M17 cells assessed as increase in cell viability treated 2 hrs post 2 mM PQ treatment measured after 24 hrs by MTT assay; assay type: functional, cell-based

SMILES | Activity [1] | Activity [2] | Activity [3] | Activity [4] | Activity [5] | Activity [6] | logP [7] | Activity [8] | Activity [9] | Activity [10] | Activity [11] | Retention time [12] | Activity [13] | Activity [14] | Activity [15] | Activity [16] | Activity [17] | Activity [18] | EC50 [19]
CC(=O)N(O)CCCCCNC(=O)CCC(=O)N(O)CCCCCNC(=O)CCC(=O)N(O)CCCCCNC(=O)C12CC3CC(C1)CC(c1ccc([N+](=O)[O-])cc1)(C3)C2 | Active | Non-Toxic | Active | Active | Active | Active | 2.09 | Active | Active | Active | Active | 1.71 min | Active | Active | Non-Toxic | Active | Active | – | –
c1ccc2c(c1)oc1ccccc12 [DIBENZOFURAN] | – | – | – | – | – | – | 3.76 | – | – | – | – | – | – | – | – | – | – | – | –
CC(=O)N(O)CCCCCNC(=O)CCC(=O)N(O)CCCCCNC(=O)CCC(=O)N(O)CCCCCNC(=O)C12CC3(C)CC(C)(CC(C)(C3)C1)C2 | Active | Non-Toxic | Active | Active | Active | Active | 2.54 | Active | Active | Active | Active | 1.85 min | – | Active | Non-Toxic | – | Active | Active | 3.4 µM
CC(=O)N(O)CCCCCNC(=O)CCC(=O)N(O)CCCCCNC(=O)CCC(=O)N(O)CCCCCNC(=O)C12CC3CC(CC(Cl)(C3)C1)C2 | inactive | Non-Toxic | inactive | inactive | inactive | inactive | 1.84 | Active | inactive | – | Active | 0.83 min | inactive | Active | Non-Toxic | inactive | Active | Active | –
CC(=O)N(O)CCCCCNC(=O)CCC(=O)N(O)CCCCCNC(=O)CCC(=O)N(O)CCCCCNC(=O)C1CC2CCCC(C2)C1 (stereo not given) | inactive | Non-Toxic | inactive | inactive | inactive | inactive | 1.87 | Active | inactive | Active | Active | 0.65 min | inactive | Active | Non-Toxic | inactive | Active | Active | –
CC(=O)N(O)CCCCCNC(=O)CCC(=O)N(O)CCCCCNC(=O)CCC(=O)N(O)CCCCCNC(=O)C[C@H]1C[C@H]2CC[C@H]1C2 (relative stereo) | Active | Non-Toxic | Active | Active | Active | Active | 1.16 | – | Active | – | Active | 0.27 min | Active | – | Non-Toxic | Active | Active | – | –
CC(=O)N(O)CCCCCNC(=O)CCC(=O)N(O)CCCCCNC(=O)CCC(=O)N(O)CCCCCNC(=O)C12CC3CC(CC1C3)C2 | Active | Non-Toxic | Active | Active | Active | Active | 0.98 | Active | Active | – | Active | 0.48 min | – | – | Non-Toxic | – | Active | Active | 30 µM
CC(=O)N(O)CCCCCNC(=O)CCC(=O)N(O)CCCCCNC(=O)CCC(=O)N(O)CCCCCNC(=O)CC12CC3CC(CC(Br)(C3)C1)C2 | inactive | Non-Toxic | inactive | inactive | inactive | inactive | 1.84 | – | inactive | – | Active | 1.09 min | inactive | – | Non-Toxic | inactive | Active | – | –
COC(=O)c1ccccc1C(=O)OC [DIMETHYL PHTHALATE] | – | – | – | – | – | – | 1.59 | – | – | – | – | – | – | – | – | – | – | – | –
CC(=O)N(O)CCCCCNC(=O)CCC(=O)N(O)CCCCCNC(=O)CCC(=O)N(O)CCCCCNC(=O)C12CC3CC(CC(C3)C1)C2 | Active | Non-Toxic | Active | Active | Active | Active | 1.32 | Active | Active | Active | Active | 0.43 min | Active | Active | Non-Toxic | Active | Active | Active | –
CC(=O)N(O)CCCCCNC(=O)CCC(=O)N(O)CCCCCNC(=O)CCC(=O)N(O)CCCCCNC(=O)C12CC3CC(CC(Br)(C3)C1)C2 | inactive | Non-Toxic | inactive | inactive | inactive | inactive | 1.9 | Active | inactive | – | Active | 0.91 min | inactive | – | Non-Toxic | inactive | Active | – | –
CC(=O)N(O)CCCCCNC(=O)CCC(=O)N(O)CCCCCNC(=O)CCC(=O)N(O)CCCCCNC(=O)[C@H]1C[C@H]2CC[C@H]1C2 (relative stereo) | Active | Non-Toxic | Active | Active | Active | Active | 0.55 | – | Active | Active | Active | 0.08 min | Active | – | Non-Toxic | Active | Active | Active | –
c1ccc2ccccc2c1 | – | – | – | – | – | – | 3.27 | – | – | – | – | – | – | – | – | – | – | – | –
CC(=O)N(O)CCCCCNC(=O)CCC(=O)N(O)CCCCCNC(=O)CCC(=O)N(O)CCCCCNC(=O)CC12CC3CC(CC(O)(C3)C1)C2 | Active | Non-Toxic | Active | – | Active | – | 0.15 | – | Active | – | Active | -0.52 min | – | – | Non-Toxic | – | Active | – | –
CC(=O)N(O)CCCCCNC(=O)CCC(=O)N(O)CCCCCNC(=O)CCC(=O)N(O)CCCCCNC(=O)[C@H]1C[C@H]2C=C[C@H]1C2 | Active | Non-Toxic | Active | Active | Active | Active | 0.5 to 1.4 | – | Active | Active | Active | -0.52 to 0 min | Active | – | Non-Toxic | Active | Active | Active | –
